Laboratory results from patent publication US11247985B2, “Phenyl indole allosteric inhibitors of P97 ATPase” (University of Pittsburgh—Of the Commonwealth System of …, priority 2015, dated 2022).

Biological target: p97 ATPase WT (Homo sapiens (Human), UniProt P55072)
Assay: p97 ADP-Glo assay
Format: biochemical
Conditions: Table 3; read-out: ADPGlo IC50
Source text: ADP-Glo™ (Promega Corp.) is a bioluminescent, homogeneous assay that measures ADP formed from a biochemical reactions. Because of its high sensitivity, the assay is suitable for monitoring enzyme activities at very early substrate conversions requiring very low amount of enzymes.
The ADP-Glo assay can be conducted as described in Chou, T.-F.; Bulfer, S. L.; Weihl, C.

Sequence of p97 ATPase WT (P55072 whole entry): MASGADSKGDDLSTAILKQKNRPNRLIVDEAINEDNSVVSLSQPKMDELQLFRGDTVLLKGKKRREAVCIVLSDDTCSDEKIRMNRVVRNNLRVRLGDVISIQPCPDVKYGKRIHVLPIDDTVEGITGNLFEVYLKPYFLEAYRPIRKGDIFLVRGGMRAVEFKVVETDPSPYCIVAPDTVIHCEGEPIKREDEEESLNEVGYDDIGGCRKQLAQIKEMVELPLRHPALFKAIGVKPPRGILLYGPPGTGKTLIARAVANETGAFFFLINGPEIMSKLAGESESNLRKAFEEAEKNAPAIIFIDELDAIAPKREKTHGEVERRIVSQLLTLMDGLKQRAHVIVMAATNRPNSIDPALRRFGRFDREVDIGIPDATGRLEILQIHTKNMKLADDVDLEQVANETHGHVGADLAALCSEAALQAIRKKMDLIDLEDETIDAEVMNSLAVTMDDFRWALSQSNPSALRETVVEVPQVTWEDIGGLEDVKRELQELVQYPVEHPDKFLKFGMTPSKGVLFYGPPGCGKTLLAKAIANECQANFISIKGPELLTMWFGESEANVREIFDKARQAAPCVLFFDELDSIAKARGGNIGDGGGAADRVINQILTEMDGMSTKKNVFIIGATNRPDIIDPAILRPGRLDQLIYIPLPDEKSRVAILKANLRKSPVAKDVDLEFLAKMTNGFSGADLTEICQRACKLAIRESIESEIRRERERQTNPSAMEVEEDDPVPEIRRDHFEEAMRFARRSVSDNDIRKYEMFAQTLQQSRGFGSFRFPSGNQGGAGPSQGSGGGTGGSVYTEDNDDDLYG

IC50 [nM] | Structure (SMILES)
47 | CC(C)N1CCC(NC2CCN(c3cccc(-c4cc5cc(C#N)ccc5[nH]4)c3)CC2)CC1 [drawing 226]
4900 | CC(C)N1CCC(NC2CCN(c3cccc(-c4cc5cc(C#N)ccc5[nH]4)c3)CC2)CC1 [drawing 239]
